Source: patent publication US8882853B2, “Environmentally-friendly solvent for washing and dry-cleaning, and laundry composition including the same” (LG Household & Health Care Ltd., priority 2011, dated 2014)
Where two headings read alike, the source gives them in different places.

Assays:
[1] = Drying rate of solvent impregnated in standard cotton samples at room temperature; assay type: physicochemical; conditions: dried for 8 hours, room temperature (25° C.), relative humidity of 30%
Experimental: Each solvent used in Comparative Examples 1 to 7 and Examples 1 to 4 was evaluated for its drying rate at room temperature which is considered an important factor in dry-cleaning. The initial weight (A) of standard cotton samples was each measured. After impregnating each solvent or composition in a certain amount into the cotton samples, the weight (B) of the cotton samples was measured. A difference between weight (B) and weight (A) was calculated to determine the weight of each of the impregnated solvents. Then, the cotton samples in which each solvent was impregnated were dried for 8 hours under conditions of room temperature (25° C.) and a relative humidity of 30%. After drying, the weight of each cotton sample was measured and converted into a percentage relative to the initial impregnation weight to obtain a drying rate for each solvent.

Solubility in water = assay type: physicochemical
Source text: There has been a limitation in the effectiveness of conventional solvents for dry-cleaning in removing water-based contaminants due to the hydrophobic property thereof. Accordingly, in order to relatively evaluate a cleaning effect on the removal of water-based contaminants, the water-containing capacity of solvents according to the present invention was compared with that of the conventional dry-cleaning solvents.

| Compound | Drying rate (%) [1] [%] | Solubility (20° C.) (Solubility in water) [g/ g/100 mL] | Solubility (20° C.) (Solubility in water; result in words) |
| --- | --- | --- | --- |
| CC(C)CC1(C)OCC(CO)O1 (centres unmarked) [Example 3, Glycerol-Methyl Isobuthyl Ketone Ketal] | 85.25 |  |  |
| ClC(Cl)=C(Cl)Cl [Com. Ex. 2, Perchloroethylene] | 100 | 0.015 |  |
| COCC(CO)OC (centres unmarked) [Com. Ex. 6, 2,3-Dimethoxy-1-propanol] | 95.29 |  |  |
| CCCC1OCC(CO)O1 (centres unmarked) [Example 4, Glycerol-Butylaldehyde Acetal] | 90.3 |  | soluble |
| COCC(O)CO (centres unmarked) [Com. Ex. 5, 3-Methoxy 1,2-propanol] | 10.53 |  |  |
| O [Com. Ex. 1, Water] | 100 |  |  |
| CC1(C)OCC(CO)O1 (centres unmarked) [Example 1, Acetone Glycerol] | 100 |  | soluble |
| CCC1(C)OCC(CO)O1 (centres unmarked) [Example 2, Glycerol-Methyl Ethyl Ketone Ketal] | 100 |  | soluble |
| C[Si]1(C)O[Si](C)(C)O[Si](C)(C)O[Si](C)(C)O[Si](C)(C)O1 [Com. Ex. 4, Decamethyl-cyclopentasiloxane] | 100 |  | Insol- |
